Reference: EPA's ToxRefDB 2

Tests used:
dog [1] = conditions: Subchronic oral toxicity in nonrodent, beagle, Feed, dose end: 13 week, group: systemic
rat [2] = conditions: Combined chronic toxicity/carcinogenicity, sprague dawley, Oral, Feed, dose end: 24 month, group: systemic
rat [3] = conditions: Subchronic oral toxicity in rodents, sprague dawley, Feed, dose end: 90 day, group: systemic
mouse [4] = conditions: Subchronic oral toxicity in rodents, cd1, Feed, dose end: 13 week, group: systemic
mouse [5] = conditions: Carcinogenicity, cd1, Oral, Feed, dose end: 18 month, group: systemic
rat [6] = conditions: Multigenerational reproductive toxicity study, sprague dawley, Oral, Feed, dose end: 2 generation
mouse [7] = conditions: Carcinogenicity, cd1, Oral, Feed, dose end: 18 month, group: systemic; remark: listed apart in the source
rat [8] = conditions: Prenatal developmental toxicity study, sprague dawley, Oral, Gavage/Intubation, dose end: 15 GD
dog [9] = conditions: Chronic toxicity, beagle, Oral, Feed, dose end: 52 week, group: systemic
dog [10] = conditions: Subchronic oral toxicity in nonrodent, beagle, Feed, dose end: 13 week, group: systemic; remark: listed apart in the source
dog [11] = conditions: Chronic toxicity, beagle, Oral, Feed, dose end: 8 week, group: systemic
dog [12] = conditions: Subchronic oral toxicity in nonrodent, beagle, Feed, dose end: 13 week, group: systemic, systemic / in life observation / body weight / body weight + systemic / in life observation / body weight / body weight gain + systemic / in…
rat [13] = conditions: Subchronic oral toxicity in rodents, sprague dawley, Feed, dose end: 90 day, group: systemic; remark: listed apart in the source
mouse [14] = conditions: Carcinogenicity; cd1; Oral; Feed; dose end: 102 week; group: systemic; systemic / organ weight / liver / absolute + systemic / organ weight / liver / relative to body weight
mouse [15] = conditions: Carcinogenicity, cd1, Oral, Feed, dose end: 8 week, group: systemic
rat [16] = conditions: Prenatal developmental toxicity study, sprague dawley, Oral, Gavage/Intubation, dose end: 15 GD; remark: listed apart in the source
rat [17] = conditions: Combined chronic toxicity/carcinogenicity, sprague dawley, Oral, Feed, dose end: 104 week, group: systemic
dog [18] = conditions: Chronic toxicity; beagle; Oral; Feed; dose end: 52 week; group: systemic; systemic / organ weight / thyroid gland / absolute + systemic / organ weight / thyroid gland / relative to body weight + systemic / …
[19] = systemic / in life observation / body weight / body weight + systemic / in life observation / food consumption / food consumption + systemic…
[20] = systemic / in life observation / body weight / body weight + systemic / in life observation / body weight / body weight gain + systemic / …
[21] = systemic / clinical chemistry / 5' nucleotidase / 5' nucleotidase + systemic / clinical chemistry / alkaline phosphatase (alp/alk) / …
[22] = group: offspring, systemic / in life observation / body weight / offspring (pup) weight + systemic / in life observation / body weight / offspring (pup) …
[23] = group: parental, systemic / in life observation / clinical signs / anogenital staining
[24] = group: parental, systemic / in life observation / clinical signs / anogenital staining + systemic / in life observation / body weight / body weight + …
[25] = systemic / in life observation / body weight / body weight gain
[26] = group: developmental, developmental / developmental malformation / kidney / dilated renal pelvis + developmental / developmental malformation / ureter / dilated
[27] = group: maternal, systemic / in life observation / body weight / body weight gain + systemic / in life observation / food consumption / food consumption
[28] = systemic / in life observation / body weight / body weight gain + systemic / clinical chemistry / alkaline phosphatase (alp/alk) / alkaline …
[29] = systemic / in life observation / clinical signs / defecation (diarrhea)
[30] = systemic / in life observation / clinical signs / defecation (diarrhea) + systemic / clinical chemistry / alpha-1 globulin / alpha-1 …
[31] = systemic / clinical chemistry / alanine aminotransferase (alt/sgpt) / alanine aminotransferase (alt/sgpt) + systemic / clinical chemistry / …
[32] = systemic / clinical chemistry / albumin-globulin ratio / albumin-globulin ratio + systemic / clinical chemistry / phosphorus / phosphate
[33] = systemic / hematology / erythrocyte (rbc) count differential / erythrocyte (rbc) + systemic / hematology / leukocyte (wbc) count …
[34] = systemic / organ weight / liver / relative to body weight
[35] = systemic / organ weight / liver / relative to body weight + systemic / clinical chemistry / alkaline phosphatase (alp/alk) / alkaline …
[36] = group: developmental, developmental / developmental malformation / bone / short
[37] = group: maternal, systemic / in life observation / mortality / mortality + reproductive / reproductive performance / resorptions / resorptions
[38] = systemic / clinical chemistry / alanine aminotransferase (alt/sgpt) / alanine aminotransferase (alt/sgpt)

Cn1sccc1=O [2-Methyl-3(2H)-isothiazolone]
LOAEL (dog [1]; systemic / in life observation / body weight / body weight + systemic / in life observation / food consumption / food consumption): 40.6 mg/kg/day
LEL (dog [1]; [19]): 40.6 mg/kg/day
NEL (dog [1]; [19]): 9.9 mg/kg/day
NOAEL (dog [1]; [19]): 9.9 mg/kg/day

N#Cc1c[nH]cc1-c1cccc2c1OC(F)(F)O2 [Fludioxonil]
LOAEL (rat [2]; [20]): 113 mg/kg/day
NEL (rat [2]; [20]): 3.7 mg/kg/day
NOAEL (rat [2]; [20]): 37 mg/kg/day
LEL (rat [2]; systemic / in life observation / clinical signs / body surface staining + systemic / in life observation / clinical signs / feces, …): 37 mg/kg/day
LOAEL (rat [3]; systemic / in life observation / body weight / body weight gain + systemic / pathology microscopic / kidney / nephropathy): 428 mg/kg/day
NOAEL (rat [3]; systemic / in life observation / body weight / body weight gain + systemic / pathology microscopic / kidney / nephropathy + systemic / …): 64 mg/kg/day
LEL (rat [3]; systemic / organ weight / thymus / relative to body weight): 70 mg/kg/day
NEL (rat [3]; systemic / organ weight / thymus / relative to body weight + systemic / clinical chemistry / alkaline phosphatase (alp/alk) / alkaline …): 7.1 mg/kg/day
LOAEL (mouse [4]; [21]): 1050 mg/kg/day
NOAEL (mouse [4]; [21]): 445 mg/kg/day
LEL (mouse [4]; systemic / organ weight / liver / relative to body weight + systemic / pathology microscopic / liver / hypertrophy): 559 mg/kg/day
NEL (mouse [4]; systemic / organ weight / liver / relative to body weight + systemic / pathology microscopic / liver / hypertrophy + systemic / clinical …): 178 mg/kg/day
NEL (mouse [5]; systemic / organ weight / heart / absolute + systemic / organ weight / kidney / absolute + systemic / organ weight / liver / relative to …): 3.3 mg/kg/day
LOAEL (mouse [5]; systemic / pathology microscopic / kidney / nephropathy): 590 mg/kg/day
NOAEL (mouse [5]; systemic / pathology microscopic / kidney / nephropathy + systemic / hematology / hematocrit (hct) / hematocrit (hct) + systemic / …): 3.3 mg/kg/day
LEL (mouse [5]; systemic / pathology microscopic / kidney / nephropathy + systemic / hematology / hemoglobin (hgb) / hemoglobin (hgb) + systemic / …): 590 mg/kg/day
LOAEL (rat [6]; group: offspring, systemic / in life observation / body weight / offspring (pup) weight): 222 mg/kg/day
LEL (rat [6]; [22]): 222 mg/kg/day
NEL (rat [6]; [22]): 22.1 mg/kg/day
NOAEL (rat [6]; [22]): 22.1 mg/kg/day
NEL (rat [6]; [23]): 22.1 mg/kg/day
NOAEL (rat [6]; [23]): 22.1 mg/kg/day
LEL (rat [6]; [24]): 222 mg/kg/day
LOAEL (rat [6]; [24]): 222 mg/kg/day
LEL (mouse [7]; [25]): 1.1 mg/kg/day
NEL (mouse [7]; [25]): < 1.1 mg/kg/day
NOAEL (mouse [7]; systemic / in life observation / body weight / body weight gain + systemic / in life observation / clinical signs / convulsions + systemic…): 11.3 mg/kg/day
LOAEL (mouse [7]; systemic / in life observation / clinical signs / convulsions + systemic / in life observation / clinical signs / urine, discoloration + …): 112 mg/kg/day
LOAEL (rat [8]; [26]): 1000 mg/kg/day
NEL (rat [8]; [26]): 10 mg/kg/day
NOAEL (rat [8]; [26]): 100 mg/kg/day
LEL (rat [8]; group: developmental, developmental / developmental malformation / ureter / dilated): 100 mg/kg/day
LOAEL (rat [8]; group: maternal, systemic / in life observation / body weight / body weight gain): 1000 mg/kg/day
LEL (rat [8]; [27]): 1000 mg/kg/day
NEL (rat [8]; [27]): 100 mg/kg/day
NOAEL (rat [8]; [27]): 100 mg/kg/day
LEL (dog [9]; [25]): 35.5 mg/kg/day
LOAEL (dog [9]; [25]): 35.5 mg/kg/day
NEL (dog [9]; [28]): 3.3 mg/kg/day
NOAEL (dog [9]; [28]): 3.3 mg/kg/day
LEL (dog [10]; [29]): 50 mg/kg/day
LOAEL (dog [10]; [29]): 50 mg/kg/day
NEL (dog [10]; [30]): 5 mg/kg/day
NOAEL (dog [10]; [30]): 5 mg/kg/day

C=CCC1=C(C)[C@@H](OC(=O)[C@@H]2[C@@H](C=C(C)C)C2(C)C)CC1=O [S-Bioallethrin]
LOAEL (dog [11]; [31]): 63.2 mg/kg/day
NEL (dog [11]; [31]): 4.5 mg/kg/day
NOAEL (dog [11]; [31]): 19.5 mg/kg/day
LEL (dog [11]; systemic / organ weight / liver / absolute + systemic / organ weight / liver / relative to body weight): 19.5 mg/kg/day
LEL (dog [12]): 90.5 mg/kg/day
LOAEL (dog [12]): 90.5 mg/kg/day
NEL (dog [12]): 38.5 mg/kg/day
NOAEL (dog [12]): 38.5 mg/kg/day
LEL (rat [13]; [32]): 20.6 mg/kg/day
NEL (rat [13]; [32]): < 20.6 mg/kg/day
LOAEL (rat [13]; [33]): 36.6 mg/kg/day
NOAEL (rat [13]; [33]): 18.5 mg/kg/day
LEL (mouse [14]): 214 mg/kg/day
LOAEL (mouse [14]): > 214 mg/kg/day
NEL (mouse [14]): 41.9 mg/kg/day
NOAEL (mouse [14]): ≥ 214 mg/kg/day
LEL (mouse [15]; [34]): 420 mg/kg/day
LOAEL (mouse [15]; [34]): 420 mg/kg/day
NEL (mouse [15]; [35]): 229 mg/kg/day
NOAEL (mouse [15]; [35]): 229 mg/kg/day
LEL (rat [16]; [36]): 50 mg/kg/day
LOAEL (rat [16]; [36]): 50 mg/kg/day
NEL (rat [16]; [36]): < 50 mg/kg/day
NOAEL (rat [16]; [36]): < 50 mg/kg/day
LOAEL (rat [16]; group: maternal, systemic / in life observation / mortality / mortality): 195 mg/kg/day
LEL (rat [16]; [37]): 195 mg/kg/day
NEL (rat [16]; [37]): 125 mg/kg/day
NOAEL (rat [16]; [37]): 125 mg/kg/day
LEL (rat [17]; [38]): 7.2 mg/kg/day
LOAEL (rat [17]; [38]): 82.6 mg/kg/day
NEL (rat [17]; [38]): < 7.2 mg/kg/day
NOAEL (rat [17]; systemic / clinical chemistry / alanine aminotransferase (alt/sgpt) / alanine aminotransferase (alt/sgpt) + systemic / pathology microscopic…): 27 mg/kg/day
LEL (dog [18]): 2.7 mg/kg/day
LOAEL (dog [18]): 13.7 mg/kg/day
NEL (dog [18]): < 2.7 mg/kg/day
NOAEL (dog [18]): 2.7 mg/kg/day
